Where two headings read alike, the source gives them in different places.
Key:
[1] = system: HCC827 cells (EGFR delE746-A750); experiment: Cell proliferation (CellTiter Glo), HCC827 cells
Description: (§7) Cells were plated in Growth Media supplemented with 5% FBS and 1% P/S at a density of 3,000 cells per well in 96 well tissue culture plates (Corning). […] Growth inhibition (GI50) values were determined by Graph Pad Prism.

[2] = system: H1975 cells (EGFR L858R/T790M); experiment: Cell proliferation (CellTiter Glo), H1975 cells
Description: as §7

[3] = target: WT EGFR (A431 cells) (Homo sapiens (Human), UniProt P00533); experiment: Phospho-EGFR signaling immunoblot in A431 cells (WT EGFR); type: cell-based; settings: 1 hr treatment, EGF stimulated, phospho-EGFR (Y1068)
Description: (§1) A431 human epidermoid carcinoma, H1975 human NSCLC and HCC827 human NSCLC adenocarcinoma cells were obtained from the American Type Culture Center (Manassas, Va.). A431 cells were grown in DMEM (Invitrogen, Carlsbad, Calif.) supplemented with 10% FBS (HyClone, South Logan, Utah) and 1% Penicillin-Streptomycin (P/S, Lonza, Walkersville, Md.).
(§2) All primary antibodies were obtained from Cell Signaling (Danvers, Mass.) and used at 1:1000. Secondary antibodies were used at 1:10,000. Goat anti-mouse IgG IRDye 800CW antibody was obtained from LiCor Biosciences (Lincoln, Nebr.) and goat anti-rabbit IgG Alexa Fluor 680 was obtained from Invitrogen.
(§3) Cells were grown in 12-well plates (Corning, Coring, N.Y.) to 90% confluence and then incubated in low-serum (0.1% FBS) media for 16-18 hr. […] A431 cells were then stimulated with 50 ng/ml EGF (Peprotech, Rocky Hill, N.J.) for 15 min. After treatment, cell monolayers were washed with cold PBS (Invitrogen) and immediately lysed by scrapping into 60 uL cold Cell Extraction Buffer (Invitrogen) supplemented with Complete Protease inhibitors (Roche, Indianapolis, Ind.) and PhosphoSTOP (Roche) phosphatase inhibitors.
(§4) Phospho-protein signals were quantitated using Odyssey Infrared Imaging (Li-Cor Biosciences).
(§5) To assess phosphor-EGFR signaling, blots were probed with rabbit anti-Phospho-EGFR (Y1068) and mouse total anti-EGFR antibodies. Phospho-EGFR signal was normalized to total EGFR expression for each sample. […] Normalized data was fitted using a sigmoidal curve analysis program (Graph Pad Prism version 5) with variable Hill slope to determine the EC50 values.
(§6) The compound numbers recited in Table 4 correspond to the compound numbers in Table 1.

[4] = target: EGFR (WT) (Homo sapiens (Human), UniProt P00533); experiment: Omnia biochemical assay, EGFR-WT active enzyme; settings: [EGFR-WT]=5 nM, [ATP]=15 uM, 30 min pre-incubation
Description: Kinase reactions were started with the addition of 45 μL of the ATP/Tyr-Sox peptide substrate mix and monitored every 71 seconds for 60 minutes at λex360/λem485 in a Synergy^4 plate reader from BioTek (Winooski, Vt.).
The compound numbers correspond to the compound numbers in Table 1.

[5] = target: EGFR delE746-A750 deletion mutation (HCC827 cells) (Homo sapiens (Human), UniProt P00533, DEL746-750); experiment: Phospho-EGFR signaling immunoblot in HCC827 cells; type: cell-based; settings: for EC50: HCC827 cells, 1 hr treatment, phospho-EGFR (Y1068); for Ratio WT/mutant (HCC827): signaling EC50 WT EGFR / HCC827
Description: as §1, §2, §3, §4, §5, §6

[6] = target: EGFR double mutation L858R/T790M (H1975 cells) (Homo sapiens (Human), UniProt P00533, L858R/T790M); experiment: Phospho-EGFR signaling immunoblot in H1975 cells; type: cell-based; settings: for EC50: H1975 cells, 1 hr treatment, phospho-EGFR (Y1068); for Ratio WT/mutant (H1975): signaling EC50 WT EGFR / H1975
Description: as §1, §2, §3, §4, §5, §6

[7] = system: H1975 tumor; experiment: H1975 tumor in vivo study; settings: female nu/nu mice, H1975 subcutaneous, intraperitoneal 25 mg/kg daily for 21 days, determined at 15 days
Description: H1975 Tumor In Vivo Study
Female nu/nu mice were implanted with 1×10^7 H1975 tumor cells in 50% Matrigel subcutaneously (0.2 ml injection volume) in the flank. Tumor measurements were recorded three times per week. Tumors were pair matched when they reached an average size of 100-150 mg. Group size was 10 mice. Test compound was administered intraperitoneal, 25 mg/kg daily for 21 days. % Tumor inhibition values were determined at 15 days, the time at which the control group reached a maximum tumor volume. Tumor volume was followed until tumors reached 1500 mm^3 or 60 days.

[8] = proliferation GI50 WT EGFR / HCC827
[9] = proliferation GI50 WT EGFR / H1975

Structure (SMILES) | Ratio WT/mutant (HCC827) [1, 8] | Ratio WT/mutant (H1975) [2, 9] | EC50 [3] [nM] | IC50 [4] [nM] | EC50 [5] [nM] | Ratio WT/mutant (HCC827) [5] | EC50 [6] [nM] | Ratio WT/mutant (H1975) [6] | % Tumor inhibition [7] [%] | Ratio WT/mutant (HCC827) [1] | Ratio WT/mutant (H1975) [2]
C=CC(=O)Nc1cccc(Nc2nc(Nc3ccc(N4CCN(S(C)(=O)=O)CC4)cc3OC)ncc2C(F)(F)F)c1 [Compound I-17, N-(3-(2-(2-methoxy-4-(4-(methylsulfonyl)piperazin-1-yl)phenylamino)-5-(trifluoromethyl)pyrimidin-4-ylamino)phenyl)acrylamide] | >15 | >10 | > 1000 | 10 to 30 | 100 to 500 | >5 | 10 to 100 | >30 | – | – | –
C=CC(=O)Nc1cccc(Oc2nc(Nc3ccc(N4CCOCC4)cc3OC)ncc2C(F)(F)F)c1 [Compound I-1, N-(3-(2-(2-methoxy-4-morpholinophenylamino)-5-(trifluoromethyl)pyrimidin-4-yloxy)phenyl)acrylamide] | >15 | >15 | > 1000 | 30 to 100 | – | – | 10 to 100 | >50 | >66 | – | –
C=CC(=O)Nc1cccc(Nc2nc(Nc3ccc(N4CCOCC4)cc3OC(F)F)ncc2C(F)(F)F)c1 [Compound I-14, N-(3-(2-(2-(difluoromethoxy)-4-morpholinophenylamino)-5-(trifluoromethyl)pyrimidin-4-ylamino)phenyl)acrylamide] | >10 | >5 | 500 to 1000 | 10 to 30 | 10 to 100 | >15 | 10 to 100 | >15 | – | – | –
C=CC(=O)Nc1cccc(Oc2nc(Nc3ccc(N4CCOCC4)cc3OC)ncc2Cl)c1 [Compound I-5, N-(3-(5-chloro-2-(2-methoxy-4-morpholinophenylamino)pyrimidin-4-yloxy)phenyl)acrylamide] | >20 | >5 | > 1000 | 10 to 30 | – | – | 10 to 100 | >30 | >33 | – | –
C=CC(=O)Nc1cccc(Oc2nc(Nc3ccc(N4CCN(C(=O)OC(C)(C)C)CC4)cc3OC)ncc2Cl)c1 [Compound I-46, tert-butyl 4-(4-(4-(3-acrylamidophenoxy)-5-chloropyrimidin-2-ylamino)-3-methoxyphenyl)piperazine-1-carboxylate] | – | – | > 1000 | 100 to 300 | < 10 | >50 | 100 to 500 | >10 | – | >10 | >1
C=CC(=O)Nc1cccc(Nc2nc(Nc3ccc(N4CCN(S(C)(=O)=O)CC4)cc3OC)ncc2Cl)c1 [Compound I-41, N-(3-(5-chloro-2-(2-methoxy-4-(4-(methylsulfonyl)piperazin-1-yl)phenylamino)pyrimidin-4-ylamino)phenyl)acrylamide] | >20 | >1 | > 1000 | 30 to 100 | – | – | > 1000 | >1 | – | – | –
C=CC(=O)Nc1cccc(Oc2nc(Nc3ccc(N4CCN(S(C)(=O)=O)CC4)cc3OC)ncc2Cl)c1 [Compound I-26, N-(3-(5-chloro-2-(2-methoxy-4-(4-(methylsulfonyl)piperazin-1-yl)phenylamino)pyrimidin-4-yloxy)phenyl)acrylamide] | >35 | >1 | > 1000 | 10 to 30 | – | – | 100 to 500 | >40 | – | – | –
C=CC(=O)Nc1cccc(Nc2nc(Nc3ccc(N4CCN(C(C)=O)CC4)cc3OC)ncc2Cl)c1 [Compound I-8, N-(3-(2-(4-(4-acetylpiperazin-1-yl)-2-methoxyphenylamino)-5-chloropyrimidin-4-ylamino)phenyl)acrylamide] | >20 | >1 | > 1000 | 10 to 30 | – | – | > 1000 | >1 | – | – | –
C=CC(=O)Nc1cccc(Nc2nc(Nc3ccc(N4CCN(C(C)=O)[C@H](C(=O)OC)C4)cc3OC)ncc2C(F)(F)F)c1 [Compound I-48, (S)-methyl 1-acetyl-4-(4-(4-(3-acrylamidophenylamino)-5-(trifluoromethyl)pyrimidin-2-ylamino)-3-methoxyphenyl)piperazine-2-carboxylate] | >15 | >10 | > 1000 | 10 to 30 | – | – | 10 to 100 | >50 | – | – | –
C=CC(=O)Nc1cccc(Oc2nc(Nc3ccc(N4CCN(S(C)(=O)=O)CC4)cc3OC)ncc2C(F)(F)F)c1 [Compound I-22, N-(3-(2-(2-methoxy-4-(4-(methylsulfonyl)piperazin-1-yl)phenylamino)-5-(trifluoromethyl)pyrimidin-4-yloxy)phenyl)acrylamide] | >35 | >10 | > 1000 | 30 to 100 | – | – | 100 to 500 | >35 | – | – | –
C=CC(=O)Nc1cccc(Oc2nc(Nc3ccc(N4CCN(C(=O)NC)CC4)cc3OC)ncc2C(F)(F)F)c1 [Compound I-21, 4-(4-(4-(3-acrylamidophenoxy)-5-(trifluoromethyl)pyrimidin-2-ylamino)-3-methoxyphenyl)-N-methylpiperazine-1-carboxamide] | >20 | >1 | > 1000 | 10 to 30 | – | – | 100 to 500 | >5 | – | – | –

Reference: patent publication US8975249B2, “Heterocyclic compounds and uses thereof” (Celgene Avilomics Research, Inc., priority 2010, dated 2015)
